Results from US12060360B2, “Lysyl oxidase inhibitors” (The Institute of Cancer Research: Royal Cancer Hospital, priority 2017, dated 2024).

What was measured:
[1] = test system: SW620 human colorectal carcinoma cells (mutant RAS); assay: SW620 xenografts, primary tumour volume T/C; assay type: in vivo; settings: 200 mg/kg po qd; ratio of average tumour volume treated/vehicle control; p<0.05
Description: (§1) All procedures involving animals were approved by the Animal Welfare and Ethical Review Body of the Institute of Cancer Research and Cancer Research UK Manchester Institute in accordance with National Home Office regulations under the Animals (Scientific Procedures) Act 1986 and according to the guidelines of the Committee of the National Cancer Research Institute Tumour size was determined by caliper measurements of tumour length, width and depth and volume was calculated as volume=0.5236×length×width×depth (mm).
SW620 xenografts: NCr mice were inoculated subcutaneously in the right flank with 5×10^6 SW620 cells at 100 ul suspension per animal. Groups of 7-8 mice were assigned to treatment following stratified allocation of tumour volumes with a median size of circa 100 mm^3. […] Tumours and weights are measured twice weekly using calipers. […] Frozen samples are kept at −80 degree centigrade until being analysed and the fixed samples stained according to the desired marker.
For therapeutic efficacy assessment, the ratio of average tumour volume between compound treated and vehicle control treated (T/C) is calculated. […] The efficacy of LOX inhibitors described in this invention, as measured by T/C in a pancreatic cancer model, a colorectal cancer model and a breast cancer model is shown in Table 2 and is significant (p<0.05) for all the data presented.

[2] = target: T1, LOX (Mus musculus, UniProt P28301); assay: LOX activity in cysts assay (LOX-roGFP2 biosensor, MDCK cysts); assay type: cell-based; settings: MDCK cysts; for IC50: roGFP2 ratio at basal surface, read-out: LOX biosensor IC50 (cyst)
T1 construct: Full length LOX cDNA was then PCR cloned into pEGFP-N1 (Clonetech), or biosensor vector proGFP2-N1; expressed in transfected cells; host or cells: MDCK cells grown as cysts on Matrigel, G418-selected
T1 sequence (P28301 163-411): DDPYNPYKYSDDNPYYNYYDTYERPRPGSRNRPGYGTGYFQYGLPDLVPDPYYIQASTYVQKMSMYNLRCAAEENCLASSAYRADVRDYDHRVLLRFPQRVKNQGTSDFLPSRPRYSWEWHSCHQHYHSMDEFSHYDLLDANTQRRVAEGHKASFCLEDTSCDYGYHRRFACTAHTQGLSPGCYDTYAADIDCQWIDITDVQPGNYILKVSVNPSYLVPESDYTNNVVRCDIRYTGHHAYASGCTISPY
Method in brief: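 Live MDCK cysts grown 10 days on Matrigel and expressing mouse LOX fused to the roGFP2 redox biosensor, with inhibitors added 30 min before confocal imaging. Oxidised/reduced ratio (405/488 nm excitation, 500–530 nm emission) at the basal cyst surface taken as LOX activity. DMSO defines 0% and 1 mM BAPN 100% inhibition.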

[3] = test system: MMTV-PyMT breast transgenic model lung metastases; assay: MMTV-PyMT transgenic mouse breast cancer model, lung metastases quantification T/C; assay type: in vivo; settings: 200 mg/kg po qd, treated/vehicle control, p<0.05
Description: (§2) MMTV-PyMT (Guy et al, 1992) (FVB) female mice were randomized by non-statistical methods to LOX inhibitor treatment groups from day 70 post-birth, when animals had no detectable tumour. Mice were treated daily by oral gavage with LOX inhibitor in vehicle, or daily vehicle (5% DMSO/2.5% Tween20 in water) by oral gavage. Tumour size was determined unblinded by caliper measurements of tumour length, width and depth and volume was calculated as 0.5236×length×width×depth (mm). In all experiments, mice were humanely killed and mammary tumours and lungs were collected when the primary tumours reached ethical limits or signs of ill health.
For lung metastases quantification, all mouse tissue samples were fixed in 10% formalin (Sigma) and embedded in paraffin. Samples were sectioned and hematoxylin and eosin (H&E) stained. Samples were imaged with a Leica CN400 slide scanner. Lung metastases were manually selected using Pen tool in ImageScope. Lung metastases number was counted and area was measured using ImageScope. The investigator was blinded to the experimental groups. The ratio of average metastases surface between compound treated and vehicle control treated (TIC) is calculated. The ratio of average metastases numbers between compound treated and vehicle control treated (T/C) is also calculated. Reduction in metastases area and/or in metastatses number in the compound treated group compared to vehicle-treated control group results in T/C<1. The antimetastatic efficacy of LOX inhibitors described in this invention, as measured by T/C in a model of breast cancer metastasising to lungs is shown in Table 2 and is significant (p<0.05) for all the data presented.

[4] = test system: MDA-MB-231 human breast adenocarcinoma; assay: MDA-MB-231 xenografts, primary tumour volume T/C; assay type: in vivo; settings: 200 mg/kg po qd, ratio of average tumour volume treated/vehicle control, p<0.05
Description: as §1
MDA-MB-231 xenografts. Ncr nude female mice at 6 weeks old from Charles River were injected into the third upper nipple mammary fat pad with MDA-MB-231 Luc 4×10^6 in 100 ul PB (50:50 Matrigel). When tumours reach a mean of 80 mm^3 around 10 days post cell inoculation the animals are allocated in 4 groups of 8. LOX inhibitor treatment is then administrated by oral gavage dosing, at 0.2 ml/20 g bodyweight once daily for up to 28 consecutive days. Tumours and weights are measured twice weekly using calipers and the animals can be imaged using non invasive method by bioluminescence using IVIS 200 imaging machine, weekly using 150 mg/kg luciferin administrate intraperitoneal or subcutaneous. At the end of the study the animals are culled, and samples taken, fixed or snap frozen in liquid nitrogen. Frozen samples kept at −80 degree centigrade until being analyzed and the fixed samples stained according to desired marker.
(§3) For therapeutic efficacy assessment, the ratio of average tumour volume between compound treated and vehicle control treated (T/C) is calculated. Reduction in tumour volume in the compound treated group compared to vehicle-treated control group results in T/C<1. The efficacy of LOX inhibitors described in this invention, as measured by T/C in a pancreatic cancer model, a colorectal cancer model and a breast cancer model is shown in Table 2 and is significant (p<0.05) for all the data presented.

[5] = test system: MMTV-PyMT breast transgenic model primary tumour; assay: MMTV-PyMT transgenic mouse breast cancer model, primary tumour T/C; assay type: in vivo; settings: 200 mg/kg po qd; ratio of average tumour volume treated/vehicle control; p<0.05
Description: as §1, §2, §3

[6] = test system: PDAC TRP53R172H (p53 mut) cells (mouse pancreatic carcinoma); assay: PDAC allografts, primary tumour volume T/C; assay type: in vivo; settings: ratio of average tumour volume treated/vehicle control, p<0.05
Description: as §1
PDAC allografts: CD1 nu/nu female mice at 6 weeks of age were inoculated subcutaneously in the right flank with 2×10^6 PDAC TRP53R172H (p53 mut) cells at 100 ul suspension per animal. In some examples, the oral dosing by metal gavage commences one day after cells inoculation, at 0.2 ml/20 g bodyweight per animal once daily for 2-4 weeks, with compound dissolved in 5.25% tween20/saline or 5% DMSO/water. In other examples, groups of 7-8 mice were assigned to treatment following stratified allocation of tumour volumes with a median size of circa 100 mm^3. […] Control animals received a similar dosage of vehicle (5.25% tween20/saline). Tumours and weights are measured twice weekly using calipers. At the end of the study the animals are culled, and samples taken, fixed or snap frozen in liquid nitrogen. Frozen samples kept at −80 degree centigrade until being analysed and the fixed samples stained according to the desired marker.
as §3

Row | Structure (SMILES) | T/C SW620 human colorectal carcinoma cells (mutant RAS) - primary tumour [1] | inhibition at 2.5 µM ([2]; 2.5 uM (stated in cell), DMSO = 0%, BAPN 1 mM = 100% inhibition, read-out: LOX biosensor inhibition (cyst) @ 2.5 uM) | IC50 [2] | T/C MMT-PyMT breast transgenic model - metastases b) Area ([3]; lung metastases area) | T/C MMT-PyMT breast transgenic model - metastases a) Count ([3]; lung metastases number) | response vs control in vivo at 200 mg/kg [4] | T/C MMT-PyMT breast transgenic model - primary tumour [5] | T/C PDAC R172H (p53 mut) (mouse pancreatic carcinoma) - primary tumour ([6]; 200 mg/kg po qd) | T/C PDAC R172H (p53 mut) (mouse pancreatic carcinoma) - primary tumour ([6]; 100 mg/kg bid)
1 | CC1(C)C[C@@H]2CN(C(=O)N3CCS(=O)(=O)CC3)C[C@H]1N(c1ccc(N3CCS(=O)(=O)CC3)cc1)C2 [Example 8, (1,1-dioxidothiomorpholino)((1S,5S)-6-(4-(1,1-dioxidothiomorpholino)phenyl)-9,9-dimethyl-3,6-diazabicyclo[3.2.2]nonan-3-yl)methanone] | 0.48 | 100% | 0.54 µM | b) 0.012 | a) 0.1 | 54% | 0.22 | – | –
2 | CCOc1ccc(N2C[C@H]3CN(C(=O)NCCO)C[C@@H]2C(C)(C)C3)cc1 [Example 12, (1S,5S)-N-(2-hydroxyethyl)-6-(4-ethoxyphenyl)-9,9-dimethyl-3,6-diazabicyclo[3.2.2]nonane-3-carboxamide] | – | – | 0.89 µM | – | – | – | 0.26 | 0.47 | –
3 | CCOc1ccc(N2C[C@H]3CN(C(=O)NCCS(C)(=O)=O)C[C@@H]2C(C)(C)C3)cc1 [Example 13, (1S,5S)-6-(4-ethoxyphenyl)-9,9-dimethyl-N-(2-(methylsulfonyl)ethyl)-3,6-diazabicyclo[3.2.2]nonane-3-carboxamide] | – | – | 1.02 µM | – | – | 63% | – | – | 0.56
